Laboratory results: patent US8399520B2, “Selective estrogen receptor modulator” (Eisai R&D Management Co., Ltd., priority 2002, dated 2013)

What was measured:
[1] = tested on: ovariectomized rats; assay: Ovariectomized rats: uterus wet weight; type: in vivo, rat
From the text: (§1) Ten weeks old Female Fischer rats (F344/N, Japan SLC, Shizuoka, Japan) were used. Rats were grouped to eliminate the effect of body weight between each group and housed with free access to food and water. Animals were anesthetized with Nembutal (Abbott Laboratories, Chicago, Ill.) and the ovaries were removed. In sham-operated group, ovaries were only touched with tweezers. Administration of compounds was started one day after the operation.
(§2) Estradiol (Sigma-Aldrich, St. Louis, Mo.) was dissolved in DMSO to 150 mg/mL then diluted with sesame oil to 0.15 mg/mL. The compounds in Examples 736 and 814, and Raloxifene were suspended in sesame oil to 5, 5 and 1.5 mg/mL, respectively. Samples were divided into aliquots for daily administration and preserved at −18° C. until use.
(§3) The samples were orally administered at 2 mL/kg. Administration was carried out once a day from Monday to Friday for 8 weeks.
After animals were sacrificed by decapitation, uterus was removed and adipose tissue and vagina was separated from uterus prior to uterus weight measurement.

[2] = tested on: ovariectomized rats; assay: Bone resorption in ovariectomized rats: deoxypyridinoline in urine; type: in vivo, rat; details: OVX rats, urine
From the text: as §1, §2, §3
Urine was gathered overnight (17 hours) using the metabolic cage under fasting. The amount of urinary deoxypyridinoline was measured with ELISA kit, Osteorincs-DPD (Sumitomo Seiyaku Biomedical Co., Ltd., Osaka, Japan) and evaluated as total amount produced in 17 hours or as the amount per 1 mg of creatinine.

[3] = tested on: ovariectomized rats; assay: Ovariectomized rats: bone density of femur and fifth lumbar vertebrae; type: in vivo, rat; details: OVX rats, 8 weeks
From the text: as §1, §2, §3
After animals were sacrificed by decapitation, left femur and the fifth lumbar vertebrae were removed. The bone density was measured by using QDR-1000/W (Ho logic Inc., Bedford, Mass.).

[4] = target: T1, estrogen receptor derived from bovine uterus (Bos taurus, UniProt P49884); assay: In vitro estrogen receptor binding assay; details: read-out: Estrogen receptor binding affinity: Ki
T1 construct: estrogen receptor derived from bovine uterus was diluted with the assay buffer solution so that 10 to 20 μg total protein was present; from tissue; host or cells: bovine uterus
T1 sequence (P49884 1-596): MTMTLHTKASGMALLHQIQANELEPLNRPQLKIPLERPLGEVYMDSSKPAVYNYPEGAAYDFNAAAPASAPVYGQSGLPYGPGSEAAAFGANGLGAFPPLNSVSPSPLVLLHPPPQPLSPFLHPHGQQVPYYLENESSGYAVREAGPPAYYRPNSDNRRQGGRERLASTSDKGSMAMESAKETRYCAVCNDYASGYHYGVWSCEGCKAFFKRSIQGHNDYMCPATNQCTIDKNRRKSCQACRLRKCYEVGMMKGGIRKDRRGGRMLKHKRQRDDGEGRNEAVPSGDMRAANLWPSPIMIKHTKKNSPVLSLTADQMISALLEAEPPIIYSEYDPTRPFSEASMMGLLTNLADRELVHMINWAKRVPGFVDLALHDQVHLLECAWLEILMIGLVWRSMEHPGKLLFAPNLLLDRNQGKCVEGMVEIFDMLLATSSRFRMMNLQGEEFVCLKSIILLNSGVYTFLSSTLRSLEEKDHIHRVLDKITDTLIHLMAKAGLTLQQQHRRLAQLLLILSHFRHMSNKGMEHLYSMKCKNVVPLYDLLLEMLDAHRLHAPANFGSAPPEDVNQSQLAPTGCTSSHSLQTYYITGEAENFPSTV
Experimental: The binding affinity of the compound according to the present invention to estrogen receptor was measured using an in vitro estrogen receptor binding assay. The binding affinity measures the ability of the compound according to the present invention to remove [^3H]-estradiol from estrogen receptor derived from bovine uterus. The following materials were used in this assay: (1) the assay buffer solution was 20 mM Tris/HCl (pH 7.5) containing 1 mM dithiothreitol (DTT), 1 mM EDTA and 10% glycerol; (2) radioactive ligand was [^3H]-estradiol purchased from Amersham Life Science; (3) the cold ligand was diethylstilbestrol purchased from sigma (Sigma); and (4) the estrogen receptor was derived from bovine uterus. The compound to be tested was prepared as a 10% DMSO solution. [^3H]-estradiol was dissolved in the assay buffer solution so as to obtain a final concentration of 1 nM. […] Each plate contains total binding, non-specific binding and the binding which were not inhibited by various concentrations of the compound. The plate was incubated for 1 hour at room temperature. […] These mixtures were centrifuged, and the supernatant thereof was evaluated for its radioactivity using a liquid scintillation counter. Specific binding was calculated by subtracting non-specific binding dpm (counts remaining in the supernatant obtained by centrifugal separation of a reaction mixture containing estrogen receptor derived from bovine uterus, radioactive ligand and excess cold ligand) from the total binding dpm (counts remaining in the supernatant obtained by centrifugal separation of a reaction mixture containing estrogen receptor derived from bovine uterus and radioactive ligand only). The effectiveness of the compound was evaluated by Ki. […] C is the concentration of [^3H]-estradiol in the reaction mixture, and Kd is the [^3H]-estradiol dissociation constant. The Kd was determined by Scatchard analysis. That is to say, various concentrations of [^3H]-estradiol were used to measure the concentration of specifically bound [^3H]-estradiol, which served as the horizontal axis, the value which was obtained by dividing the concentration of specifically bound [^3H]-estradiol by the concentration [^3H]-estradiol not bound to the receptor served as the vertical axis to produce a plot, and the negative value of the inverse of the slope of the resulting straight line was used as Kd.

[5] = tested on: MCF-7 breast cancer cells; assay: MCF-7 growth analysis (estrogen agonist and antagonist activity, MTT assay); type: cell-based; details: Homo sapiens; for activity at 0.1 µM: MCF7, MCF-7, 72 hours, growth rate of diluent control = 100, of 17β-estradiol (1 nM) = 200, read-out: Agonist activity: growth rate (100 nM test compound); for IC50: MCF7, MCF-7 growth with 17β-estradiol (10 pM) present simultaneously, 72 hours
Experimental: Test Example 2 determines the estrogen agonist and antagonist activities of the compound according to the present invention in reproduction system cells. […] The present test was carried out according to the following procedures. MCF-7 breast cancer cells were cultured in the preservation medium until the compound evaluation. The preservation medium is the MEM (minimum essential medium, phenol red-free, Gibco, ##51200-038) supplemented with 10% (volume/volume) fetal bovine serum (FBS), 2 mM L-glutamine, 1 mM sodium pyruvate, non-essential amino acids (0.1 mM, Gibco, #15240-062), and antibiotic-antimycotic solution ( 1/50 of culture medium volume, Gibco). Five days prior to analysis, the preservation medium was exchanged with analytical medium to which 10% charcoal-stripped fetal bovine serum (charcoal-FBS) was added instead of 10% FBS, so as to deprive the MCF-7 cells of endogenous steroids. Twenty-four hours after exchange to the analytical medium, the MCF-7 cells were removed from the preservation flask using cell isolation medium (trypsin-EDTA solution, Gibco). The cells were washed with analytical medium once, and cell suspension at 50,000 cell/ml was prepared using the analytical medium. The prepared cell suspension was added to a 96 well flat-bottomed microculture at […] (5,000 cells) per well, the cells were cultured in a 5% CO2 incubator for 24 hours at 37° C., to equilibrate the cells after cell transfer. […] The cells were further cultured in the 5% CO2 incubator for 72 hours at 37° C. After culturing, the cell growth was examined by the MTT assay. MTT assay was carried out as the following protocols. MTT solution at 8 mg/ml (MTT dissolved in phosphate saline water buffer) was added to the microculture at 10 μl/well, and the cells were cultured in the 5% CO2 incubator for 30 minutes at 37° C. Thereafter, resulting from the reduction of MTT by the cells, formazan crystals were dissolved by adding a dissolution buffer (400 g/l of an aqueous solution of SDS (50%) and dimethylformamide (50%)) to the microculture at 100 μl/well, and incubated the microculture for more than 4 hours in the dark. For each well of the microculture, the optical density at 590 nm due to the dissolved formazan crystals was measured.

[6] = 3 mg/kg orally once a day Monday to Friday
[7] = 0.3 mg/kg orally once a day Monday to Friday

Ki [4]	IC50 [5]	SMILES	activity at 0.1 µM [5]	other results
–	–	O=C(c1ccc(OCCN2CCCCC2)cc1)c1c(-c2ccc(O)cc2)sc2cc(O)ccc12 [Raloxifene, 6-hydroxy-2-(4-hydroxyphenyl)-3-[4-(2-piperidinoethoxy)benzoyl]benz[b]thiophene, reference compound]	–	Effect on uterus wet weight (in words) ([1]; rat, in vivo): slightly increased uterus wet weight to the same level; Deoxypyridinoline, 5 weeks [2, 6]: 8.83 ± 0.41 nM/mg/dl; Deoxypyridinoline, 8 weeks [2, 6]: 10.87 ± 1.16 nM/mg/dl; Bone Mineral Density, Distal femur ([3]; 3 mg/kg orally): 0.254 ± 0.002 g/cm^2; Bone Mineral Density, Lumber 5 ([3]; 3 mg/kg orally): 0.160 ± 0.003 g/cm^2; Bone Mineral Density, Whole femur ([3]; 3 mg/kg orally): 0.239 ± 0.002 g/cm^2
2.9 nM	2.9 nM	CCOCCN(C)CCOc1ccc(CN(CC)c2cc(OC)ccc2[C@@H]2CCc3cc(O)ccc3C2)cc1 [Example 618, (R)-6-{2-{{4-{2-[(2-Ethoxyethyl)methylamino]ethoxy}benzyl}ethylamino}-4-methoxyphenyl}-5,6,7,8-tetrahydronaphthalen-2-ol]	96%	–
2.8 nM	4.12 nM	CCN(Cc1ccc(CCN2CCCCCC2)s1)c1cc(OC)c(OC)cc1[C@@H]1CCc2cc(O)ccc2C1 [Example 259, (R)-6-{2-{[5-(2-Azepan-1-ylethyl)thiophen-2-ylmethyl]ethylamino}-4,5-dimethoxyphenyl}-5,6,7,8-tetrahydronaphthalen-2-ol]	103%	–
1 nM	7.95 nM	CCN(Cc1ccc(OCCN2CCCCCC2)cc1)c1cc(O)ccc1[C@@H]1CCc2cc(O)ccc2C1 [190 (R), (R)-6-{2-{[4-(2-azepan-1-ylethoxy)benzyl]ethylamino}-4-hydroxyphenyl}-5,6,7,8-tetrahydronaphthalen-2-ol]	124%	–
2.3 nM	2.62 nM	CCN(Cc1ccc(OCCN2CCCCCC2)nc1)c1cc(OC)ccc1[C@@H]1CCc2cc(O)ccc2C1 [Example 228, (R)-6-{2-{[6-(2-Azepan-1-ylethoxy)pyridin-3-ylmethyl]ethylamino}-4-methoxyphenyl}-5,6,7,8-tetrahydronaphthalen-2-ol]	101%	–
1.4 nM	1.4 nM	CCN(Cc1ccc(CCN2CCCCCC2)cn1)c1cc(OC)c(OC)cc1C1CCc2cc(O)ccc2C1 (stereo not shown) [Example 255, 6-{2-{[5-(2-Azepan-1-ylethyl)pyridin-2-ylmethyl]ethylamino}-4,5-dimethoxyphenyl}-5,6,7,8-tetrahydronaphthalen-2-ol]	106%	–
–	–	CC/C(=C(\c1ccccc1)c1ccc(OCCN(C)C)cc1)c1ccccc1 [Comparative Example, Tamoxifen, reference compound]	133%	–
0.2 nM	2.06 nM	CCN(Cc1ccc(CCN(C)C)cc1)c1cc(OC)c(OC)cc1[C@@H]1CCc2cc(O)ccc2C1 [Example 741, (R)-6-{2-{[4-(2-Dimethylaminoethyl)benzyl]ethylamino}-4,5-dimethoxyphenyl}-5,6,7,8-tetrahydronaphthalen-2-ol]	98%	–
9 nM	–	Oc1ccc2c(c1)CCC(c1ccc(O)cc1N(Cc1ccc(OCCN3CCCCCC3)cc1)CC(F)(F)F)C2 (stereo not shown) [Example 179, 6-{2-{[4-(2-Azepan-1-ylethoxy)benzyl](2,2,2-trifluoroethyl)amino}-4-hydroxyphenyl}-5,6,7,8-tetrahydronaphthalen-2-ol]	–	–
84 nM	–	CCn1ccc2c(O)ccc(C3CCc4cc(O)ccc4C3)c21 (stereo not shown) [Example 55, 1-Ethyl-7-(6-hydroxy-1,2,3,4-tetrahydronaphthalen-2-yl)-1H-indol-4-ol]	–	–
18 nM	–	COCCN(Cc1ccc(OCCN2CCCCC2)c(F)c1)c1cc(O)ccc1C1CCc2cc(O)ccc2C1 (stereo not shown) [Example 183, 6-{2-{[3-Fluoro-4-(2-piperidin-1-ylethoxy)benzyl](2-methoxyethyl)amino}-4-hydroxyphenyl}-5,6,7,8-tetrahydronaphthalen-2-ol]	–	–
–	–	C[C@]12CC[C@@H]3c4ccc(O)cc4CC[C@H]3[C@@H]1CC[C@@H]2O [Estradiol, reference compound]	–	Uterus (wet weight) ([1]; OVX rats, 0.3 mg/kg orally, 8 weeks): 0.213 ± 0.013 g; Deoxypyridinoline, 5 weeks [2, 7]: 12.06 ± 1.60 nM/mg/dl; Deoxypyridinoline, 8 weeks [2, 7]: 11.61 ± 2.10 nM/mg/dl; Bone Mineral Density, Distal femur ([3]; 0.3 mg/kg orally): 0.250 ± 0.001 g/cm^2; Bone Mineral Density, Lumber 5 ([3]; 0.3 mg/kg orally): 0.150 ± 0.005 g/cm^2; Bone Mineral Density, Whole femur ([3]; 0.3 mg/kg orally): 0.237 ± 0.001 g/cm^2
